In patent US20050112573A1, “Method of detecting toxic substance” (priority 2001, published 2005):

System: yeast genes (level of expressed mRNA)
Experiment: DNA chip analysis of expressed mRNA of yeast genes after 2 h culture with a toxic chemical substance
Type: cell-based, Saccharomyces cerevisiae S288C
Details: for The level of expressed mRNA in the presence of chemical substance/ (ratio to absence): transport facilitation protein gene; for The level of expressed mRNA in the presence of chemical substance/: ratio to no chemical; for The level of expressed mRNA in the presence of chemical substance/ (ratio to absence of chemical substance): stress protein genes, DNA chip
Summary of the method: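 Values are treated-to-control fluorescence ratios from a whole-yeast-genome DNA chip (65° C, over 12 h hybridization) using Cy3/Cy5-labelled cDNA from mRNA. Log-phase S288C cells in YPD at 25° C were exposed 2 h to a toxicant at sublethal, growth-inhibiting concentration.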

sodium dodecylbenzosulfonate [(17)] was tested, and the “The level of expressed mRNA in the presence of chemical substance/in the absence of chemical substance” value (yeast gene YGR124W) was 0.7, the “The level of expressed mRNA in the presence of chemical substance/The level of expressed mRNA in the absence of chemical substance” value (yeast gene YGR136W) was 1.3 and the “The level of expressed mRNA in the presence of chemical substance/ (ratio to absence)” value (yeast gene YGR138C) was 0.7. The “The level of expressed mRNA in the presence of chemical substance/” value (yeast gene YGR153W) was 1.3, the “The level of expressed mRNA in the presence of chemical substance/in the absence of chemical substance” value (yeast gene YGR157W) was 0.8 and the “The level of expressed mRNA in the presence of chemical substance/The level of expressed mRNA in the absence of chemical substance” value (yeast gene YGR189C) was 2.3. The “The level of expressed mRNA in the presence of chemical substance/in the absence of chemical substance” value (yeast gene YGR192C) was 1.1, the “The level of expressed mRNA in the presence of chemical substance/The level of expressed mRNA in the absence of chemical substance” value (yeast gene YGR213C) was 12.8 and the “The level of expressed mRNA in the presence of chemical substance/” value (yeast gene YGR223C) was 1.1. The “The level of expressed mRNA in the presence of chemical substance/in the absence of chemical substance” value (yeast gene YGR244C) was 1.9, the “The level of expressed mRNA in the presence of chemical substance/” value (yeast gene YGR247W) was 1.0 and the “The level of expressed mRNA in the presence of chemical substance/in the absence of chemical substance” value (yeast gene YGR254W) was 1.3. The “The level of expressed mRNA in the presence of chemical substance/The level of expressed mRNA in the absence of chemical substance” value (yeast gene YGR257C) was 1.1, the “The level of expressed mRNA in the presence of chemical substance/ (in its absence), gene YGR287C” value (yeast gene YGR287C, ratio of DNA chip fluorescence intensity to that without chemical substance) was 1.0 and the “The level of expressed mRNA in the presence of chemical substance/ (in its absence), gene YGR288W” value (yeast gene YGR288W, ratio of DNA chip fluorescence intensity to that without chemical substance) was 1.2. For the same substance, the “The level of expressed mRNA in the presence of chemical substance/” value (yeast gene YGR295C) was 1.6, the “The level of expressed mRNA in the presence of chemical substance/ (ratio to absence of chemical substance)” value (yeast gene YHL028W) was 1.6 and the “The level of expressed mRNA in the presence of chemical substance/ (ratio to absence)” value (yeast gene YHL035C) was 1.1. For the same substance, the “The level of expressed mRNA in the presence of chemical substance/ (ratio to absence)” value (yeast gene YHL036W) was 1.0, the “The level of expressed mRNA in the presence of chemical substance/ (ratio to absence)” value (yeast gene YHL040C) was 1.4 and the “The level of expressed mRNA in the presence of chemical substance/” value (yeast gene YHL044W) was 0.8. The “The level of expressed mRNA in the presence of chemical substance/ (ratio to absence of chemical substance)” value (yeast gene YHL046C) was 0.9, the “The level of expressed mRNA in the presence of chemical substance/The level of expressed mRNA in the absence of chemical substance” value (yeast gene YHR004C) was 1.4 and the “The level of expressed mRNA in the presence of chemical substance/in the absence of chemical substance” value (yeast gene YHR018C) was 1.9. For the same substance, the “The level of expressed mRNA in the presence of chemical substance/in the absence of chemical substance” value (yeast gene YHR043C) was 1.4, the “The level of expressed mRNA in the presence of chemical substance/in the absence of chemical substance” value (yeast gene YHR044C) was 1.3 and the “The level of expressed mRNA in the presence of chemical substance/ (ratio to absence)” value (yeast gene YHR048W) was 0.7. For the same substance, the “The level of expressed mRNA in the presence of chemical substance/The level of expressed mRNA in the absence of chemical substance” value (yeast gene YHR071W) was 2.6, the “The level of expressed mRNA in the presence of chemical substance/ (ratio to absence)” value (yeast gene YHR092C) was 0.9 and the “The level of expressed mRNA in the presence of chemical substance/ (ratio to absence)” value (yeast gene YHR094C) was 1.4. For the same substance, the “The level of expressed mRNA in the presence of chemical substance/in the absence of chemical substance” value (yeast gene YHR112C) was 1.6, the “The level of expressed mRNA in the presence of chemical substance/” value (yeast gene YHR116W) was 0.9 and the “The level of expressed mRNA in the presence of chemical substance/The level of expressed mRNA in the absence of chemical substance” value (yeast gene YHR139C) was 1.4. For the same substance, the “The level of expressed mRNA in the presence of chemical substance/The level of expressed mRNA in the absence of chemical substance” value (yeast gene YHR142W) was 1.3, the “The level of expressed mRNA in the presence of chemical substance/” value (yeast gene YHR145C) was 1.3 and the “The level of expressed mRNA in the presence of chemical substance/ (ratio to absence)” value (yeast gene YHR175W) was 1.3. The “The level of expressed mRNA in the presence of chemical substance/ (in its absence), gene YHR210C” value (yeast gene YHR210C, ratio of DNA chip fluorescence intensity to that without chemical substance) was 1.4, the “The level of expressed mRNA in the presence of chemical substance/ (in its absence), gene YIL006W” value (yeast gene YIL006W, ratio of DNA chip fluorescence intensity to that without chemical substance) was 0.8 and the “The level of expressed mRNA in the presence of chemical substance/ (ratio to absence of chemical substance)” value (yeast gene YIL011W) was 0.8. For the same substance, the “The level of expressed mRNA in the presence of chemical substance/ (ratio to absence)” value (yeast gene YIL022W) was 0.8, the “The level of expressed mRNA in the presence of chemical substance/ (ratio to absence)” value (yeast gene YIL056W) was 1.5 and the “The level of expressed mRNA in the presence of chemical substance/” value (yeast gene YIL058W) was 1.4. For the same substance, the “The level of expressed mRNA in the presence of chemical substance/” value (yeast gene YIL060W) was 1.2, the “The level of expressed mRNA in the presence of chemical substance/” value (yeast gene YIL065C) was 2.1 and the “The level of expressed mRNA in the presence of chemical substance/” value (yeast gene YIL083C) was 0.9. The “The level of expressed mRNA in the presence of chemical substance/ (ratio to absence)” value (yeast gene YIL088C) was 1.2, the “The level of expressed mRNA in the presence of chemical substance/” value (yeast gene YIL097W) was 1.1 and the “The level of expressed mRNA in the presence of chemical substance/The level of expressed mRNA in the absence of chemical substance” value (yeast gene YIL123W) was 1.3. The “The level of expressed mRNA in the presence of chemical substance/The level of expressed mRNA in the absence of chemical substance” value (yeast gene YIL140W) was 0.7, the “The level of expressed mRNA in the presence of chemical substance/in the absence of chemical substance” value (yeast gene YIL160C) was 2.4 and the “The level of expressed mRNA in the presence of chemical substance/ (ratio to absence)” value (yeast gene YIL166C) was 1.2. For the same substance, the “The level of expressed mRNA in the presence of chemical substance/ (ratio to absence)” value (yeast gene YIL170W) was 1.6, the “The level of expressed mRNA in the presence of chemical substance/in the absence of chemical substance” value (yeast gene YIR017C) was 1.5 and the “The level of expressed mRNA in the presence of chemical substance/in the absence of chemical substance” value (yeast gene YIR030C) was 0.9. The “The level of expressed mRNA in the presence of chemical substance/” value (yeast gene YJL036W) was 1.4, the “The level of expressed mRNA in the presence of chemical substance/in the absence of chemical substance” value (yeast gene YJL052W) was 1.2 and the “The level of expressed mRNA in the presence of chemical substance/ (in its absence), gene YJL070C” value (yeast gene YJL070C, ratio of DNA chip fluorescence intensity to that without chemical substance) was 1.1. The “The level of expressed mRNA in the presence of chemical substance/The level of expressed mRNA in the absence of chemical substance” value (yeast gene YJL073W) was 1.1, the “The level of expressed mRNA in the presence of chemical substance/The level of expressed mRNA in the absence of chemical substance” value (yeast gene YJL089W) was 1.2 and the “The level of expressed mRNA in the presence of chemical substance/ (ratio to absence)” value (yeast gene YJL094C) was 2.1. For the same substance, the “The level of expressed mRNA in the presence of chemical substance/ (ratio to absence), gene YJL096W” value (yeast gene YJL096W, mitochondria-located protein genes, 2 h culture with chemical) was 1.1, the “The level of expressed mRNA in the presence of chemical substance/The level of expressed mRNA in the absence of chemical substance” value (yeast gene YJL116C) was 1.2 and the “The level of expressed mRNA in the presence of chemical substance/in the absence of chemical substance” value (yeast gene YJL153C) was 6.5. For the same substance, the “The level of expressed mRNA in the presence of chemical substance/ (ratio to absence of chemical substance)” value (yeast gene YJL158C) was 1.4, the “The level of expressed mRNA in the presence of chemical substance/ (in its absence), gene YJL167W” value (yeast gene YJL167W, ratio of DNA chip fluorescence intensity to that without chemical substance) was 1.4 and the “The level of expressed mRNA in the presence of chemical substance/ (ratio to absence), gene YJL180C” value (yeast gene YJL180C, mitochondria-located protein genes, 2 h culture with chemical) was 0.9. For the same substance, the “The level of expressed mRNA in the presence of chemical substance/” value (yeast gene YJL185C) was 1.0, the “The level of expressed mRNA in the presence of chemical substance/ (ratio to absence)” value (yeast gene YJL212C) was 0.6 and the “The level of expressed mRNA in the presence of chemical substance/” value (yeast gene YJL213W) was 2.1. For the same substance, the “The level of expressed mRNA in the presence of chemical substance/ (in its absence), gene YJL216C” value (yeast gene YJL216C, ratio of DNA chip fluorescence intensity to that without chemical substance) was 1.2, the “The level of expressed mRNA in the presence of chemical substance/ (ratio to absence)” value (yeast gene YJL219W) was 1.6 and the “The level of expressed mRNA in the presence of chemical substance/The level of expressed mRNA in the absence of chemical substance” value (yeast gene YJR004C) was 0.4. For the same substance, the “The level of expressed mRNA in the presence of chemical substance/in the absence of chemical substance” value (yeast gene YJR009C) was 1.1, the “The level of expressed mRNA in the presence of chemical substance/in the absence of chemical substance” value (yeast gene YJR010W) was 1.2 and the “The level of expressed mRNA in the presence of chemical substance/in the absence of chemical substance” value (yeast gene YJR073C) was 2.9. For the same substance, the “The level of expressed mRNA in the presence of chemical substance/” value (yeast gene YJR085C) was 1.4, the “The level of expressed mRNA in the presence of chemical substance/The level of expressed mRNA in the absence of chemical substance” value (yeast gene YJR086W) was 1.4 and the “The level of expressed mRNA in the presence of chemical substance/ (ratio to absence of chemical substance)” value (yeast gene YJR090C) was 1.1. For the same substance, the “The level of expressed mRNA in the presence of chemical substance/ (ratio to absence)” value (yeast gene YJR095W) was 1.3, the “The level of expressed mRNA in the presence of chemical substance/ (ratio to absence)” value (yeast gene YJR106W) was 1.2 and the “The level of expressed mRNA in the presence of chemical substance/in the absence of chemical substance” value (yeast gene YJR130C) was 1.1. The “The level of expressed mRNA in the presence of chemical substance/in the absence of chemical substance” value (yeast gene YJR149W) was 1.1, the “The level of expressed mRNA in the presence of chemical substance/in the absence of chemical substance” value (yeast gene YJR155W) was 1.3 and the “The level of expressed mRNA in the presence of chemical substance/in the absence of chemical substance” value (yeast gene YKL001C) was 2.7. The “The level of expressed mRNA in the presence of chemical substance/The level of expressed mRNA in the absence of chemical substance” value (yeast gene YKL008C) was 1.4, the “The level of expressed mRNA in the presence of chemical substance/The level of expressed mRNA in the absence of chemical substance” value (yeast gene YKL013C) was 1.6 and the “The level of expressed mRNA in the presence of chemical substance/The level of expressed mRNA in the absence of chemical substance” value (yeast gene YKL039W) was 1.2. For the same substance, the “The level of expressed mRNA in the presence of chemical substance/The level of expressed mRNA in the absence of chemical substance” value (yeast gene YKL041W) was 1.1, the “The level of expressed mRNA in the presence of chemical substance/The level of expressed mRNA in the absence of chemical substance” value (yeast gene YKL096W) was 0.5 and the “The level of expressed mRNA in the presence of chemical substance/” value (yeast gene YKL133C) was 1.2. The “The level of expressed mRNA in the presence of chemical substance/ (ratio to absence)” value (yeast gene YKL146W) was 1.0, the “The level of expressed mRNA in the presence of chemical substance/” value (yeast gene YKL162C) was 0.8 and the “The level of expressed mRNA in the presence of chemical substance/ (ratio to absence of chemical substance)” value (yeast gene YKL164C) was 0.8. The “The level of expressed mRNA in the presence of chemical substance/The level of expressed mRNA in the absence of chemical substance” value (yeast gene YKL165C) was 0.9 and the “The level of expressed mRNA in the presence of chemical substance/” value (yeast gene YKL187C) was 0.7.
